Where two headings read alike, the source gives them in different places.
Tests used:
C8166 cells = test: Toxicity in C8166 cells (MTT-Formazen); format: cell-based; conditions: Table 3
Description: (§1) C8166 cells. Cells were grown in RPMI 1640 with 10% calf serum. 4×10^4 cells per microtiter plate well were mixed with 5-fold dilutions of compound prior to addition of 10 CCID50 units of III-B strain of HIV-1 and incubated for 5–7 days (Betbeder et al. Antiviral Chem. Chemother. 1, 241–247, 1990). Formation of syncytia was examined from 2 days post-infection. Culture fluid was collected at 5–7 days and gp120 antigen production measured by ELISA (Mahmood and Hay, J. Immunol. Meth., 151, 9–13, 1992). […] Cell viability of infected and uninfected cells were assessed by the MTT-Formazen method (Pauwels et al. J. Virol. Meth. 20, 309–321, 1988).
(§2) Each assay was carried out in duplicate, on at least two separate occasions, and data quoted are the average of each separate assay.

III-B strain of HIV-1 = test: microbe, parasite or virus in culture; format: cell-based
Description: as §1, §2

HIV-1 = test: microbe, parasite or virus in culture; conditions: read-out: HIV1 CEM: EC50 for inhibition of HIV-1 in CEM cells
Procedure, shortened: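 5×10^5 cells/mL, 100 CCID50/mL virus, + compound dilutions. CEM: giant cells scored microscopically, day 4. MT-4: viability by trypan blue, day 5.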

HIV-2 [1] = test: Inhibition of HIV-2 in CEM cells (giant cell formation); format: cell-based
Procedure, shortened: (§3)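 Trypan blue staining of MT-4 cultures on day 5 gave viable cell numbers; CEM cultures were checked microscopically for giant cells on day 4. Both cell types were infected at 100 CCID50/mL (5×10^5 cells/mL) and incubated with compound dilutions.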

HIV-2 [2] = test: Inhibition of HIV-2 in CEM/TK- cells; format: cell-based
Procedure, shortened: as §3

CEM cells = test: Toxicity to CEM cells; format: cell-based, human
Description: Cells were infected with HIV-1 as previously described [Balzarini et al. AIDS (1991), 5, 21–28]. Briefly, 5×10^5 cells per milliliter were infected with HIV-1 or HIV-2 at 100 CCID50 (50% cell culture infective dose) per milliliter of cell suspension. Then 100 μL of the infected cell suspension was transferred to microtiter plate wells and mixed with 100 μL of the appropriate dilutions of the test compounds. After 4 days giant cell formation was recorded microscopically in the HIV-infected cell cultures [CEM], and after 5 days the number of viable cells was determined by trypan blue staining of the HIV-infected cell cultures [MT4].
(§4) The data columns are, in order: • HIV1 MT4: EC50 in μM for inhibition of HIV-1 in MT4 cells. • HIV2 MT4: EC50 in μM for inhibition of HIV-2 in MT4 cells. • CC50 MT4: CC50 in μM for toxicity to MT-4 cells. • HIV1 CEM: EC50 in μM for inhibition of HIV-1 in CEM cells. • HIV2 CEM: EC50 in μM for inhibition of HIV-2 in CEM cells. • HIV2 CEM-TK-: EC50 in μM for inhibition of HIV-2 in CEM/TK^− cells. • CC50 CEM: CC50 in μM for toxicity to CEM cells. • EC50 MSV: EC50 in μM for inhibition of MSV • MCC MSV: Minimum cytotoxic concentration in MSV assay

MSV = test: Inhibition of MSV (in vitro); format: cell-based, Moloney Sarcoma Virus
Description: as §4

[3] = Minimum cytotoxic concentration in MSV assay; format: cell-based
Description: The data columns are, in order: • HIV1 MT4: EC50 in μM for inhibition of HIV-1 in MT4 cells. • HIV2 MT4: EC50 in μM for inhibition of HIV-2 in MT4 cells. • CC50 MT4: CC50 in μM for toxicity to MT-4 cells. • HIV1 CEM: EC50 in μM for inhibition of HIV-1 in CEM cells. • HIV2 CEM: EC50 in μM for inhibition of HIV-2 in CEM cells. • HIV2 CEM-TK-: EC50 in μM for inhibition of HIV-2 in CEM/TK^- cells. • CC50 CEM: CC50 in μM for toxicity to CEM cells. • EC50 MSV: EC50 in μM for inhibition of […]: Minimum cytotoxic concentration in MSV assay

[4] = HIV1 in C8166 cells, Table 3, read-out: Activity EC50
[5] = Table 6, mean of two or more repeat experiments
[6] = HIV2, Table 2, read-out: EC50 CEM TK^−
[7] = Table 6, mean of two or more repeat experiments, read-out: HIV2 CEM: EC50 for inhibition of HIV-2 in CEM cells
[8] = Table 6, mean of two or more repeat experiments, read-out: HIV2 CEM-TK-: EC50 for inhibition of HIV-2 in CEM/TK^− cells
[9] = CEM cells, HIV-2, read-out: HIV2 CEM: EC50 for inhibition of HIV-2 in CEM cells
[10] = CEM/TK- cells, HIV-2, read-out: HIV2 CEM-TK-: EC50 for inhibition of HIV-2 in CEM/TK- cells

SMILES	CC50 (C8166 cells) [µM]	Selectivity CC50/EC50 × 10^3 (III-B strain of HIV-1)	EC50 (III-B strain of HIV-1; [4]) [nM]	EC50 (HIV-1; [5]) [nM]	EC50 (HIV-2 [1]; [6]) [nM]	EC50 (HIV-2 [1]; [7]) [nM]	EC50 (HIV-2 [2]; [6]) [nM]	EC50 (HIV-2 [2]; [8]) [nM]	EC50 (III-B strain of HIV-1; HIV1 in C8166, Table 2, read-out: EC50 C8166) [nM]	CC50 (CEM cells; [5]) [µM]	EC50 (MSV; Table 6) [µM]	MCC MSV: Minimum cytotoxic concentration in MSV assay ([3]; Table 6)	EC50 (MSV; MSV) [µM]	EC50 (HIV-1; CEM cells, HIV-1) [nM]	EC50 (HIV-2 [1]; [9]) [nM]	MCC MSV: Minimum cytotoxic concentration in MSV assay ([3]; MSV assay)	EC50 (HIV-2 [2]; [10]) [nM]	CC50 (CEM cells; CEM cells) [µM]
COC(=O)C(C)NP(=O)(OCC1C=CC(n2cc(C)c(=O)[nH]c2=O)O1)Oc1ccc(F)cc1 (stereo not drawn) [Compound 327, 2′,3′-dideoxy-2′,3′-didehydrothymidine 5′-(p-fluorophenylmethoxyalaninyl) phosphoramidate]	200	62.5 × 10^3	3.2	–	–	–	–	–	–	–	–	–	–	–	–	–	–	–
Cc1cn(C2C=CC(COP(=O)(NC(C)C(=O)OCc3ccccc3)Oc3ccccc3)O2)c(=O)[nH]c1=O (stereo not drawn) [Compound 730, 2′,3′-dideoxy-2′,3′-didehydrothymidine-5′-(phenyl N-benzyloxyalaninyl) phosphoramidate]	400	–	0.8	16	16	16	60	60	0.8	–	–	–	–	–	–	–	–	–
Cc1cn(C2C=CC(COP(=O)(Oc3ccc(Br)cc3Br)N(C)C(C)C(=O)O)O2)c(=O)[nH]c1=O (stereo not drawn) [Compound 776, 2′,3′-dideoxy-2′,3′-didehydrothymidine-5′-(2,4-dibromophenyl N-methylalaninyl) phosphoramidate]	100	125 × 10^3	0.8	40	–	55	–	25	–	16	–	–	–	–	–	–	–	–
CCCCCCOC(=O)[C@H](C)NP(=O)(OCC1C=CC(n2cc(C)c(=O)[nH]c2=O)O1)Oc1ccccc1 (stereo partly drawn) [Compound 862, 2′,3′-dideoxy-2′,3′-didehydrothymidine 5′-(phenyl N-hexyloxyalaninyl) phosphoramidate]	500	417 × 10^3	1.2	60	–	55	–	33	–	48	–	–	–	–	–	–	–	–
Cc1cn(C2C=CC(COP(=O)(NC(C)C(=O)OCc3ccccc3)Oc3ccc(Br)cc3Br)O2)c(=O)[nH]c1=O (stereo not drawn) [Compound 868, 2′,3′-dideoxy-2′, 3′-didehydrothymidine-5′-(2,4-dibromophenyl N-benzylalaninyl) phosphoramidate]	500	156 × 10^3	3.2	200	–	200	–	200	–	50	–	–	–	–	–	–	–	–
Cc1cn(C2C=CC(COP(=O)(NC(Cc3ccccc3)C(=O)OCc3ccccc3)Oc3ccccc3)O2)c(=O)[nH]c1=O (stereo not drawn) [Compound 877, 2′,3′-dideoxy-2′,3′-didehydrothymidine-5′-(phenyl N-methoxyglycinyl) phosphoramidate]	80	267 × 10^3	0.3	600	–	600	–	240	–	44	–	–	–	–	–	–	–	–
Cc1cn([C@H]2C=C[C@@H](COP(=O)(NC(Cc3ccccc3)C(=O)OC(C)(C)C)Oc3ccccc3)O2)c(=O)[nH]c1=O (stereo partly drawn) [Compound 878, 2′,3′-dideoxy-2′,3′-didehydrothymidine-5′-(phenyl N-tert-butylphenylalaninyl) phosphoramidate]	150	0.9 × 10^3	160	2000	–	2000	–	650	–	80	–	–	–	–	–	–	–	–
Cc1cn(C2C=CC(COP(=O)(N[C@@H](C)C(=O)OC3CCCCC3)Oc3ccccc3)O2)c(=O)[nH]c1=O (stereo partly drawn) [Compound 892, 2′,3′-dideoxy-2′,3′-didehydrothymidine 5′-(phenyl N-cyclohexyloxyalaninyl) phosphoramidate]	500	312 × 10^3	1.6	65	–	75	–	90	–	51.4	–	–	–	–	–	–	–	–
Cc1cn([C@H]2C=C[C@@H](COP(=O)(NC(C)C(=O)OC(C)(C)C)Oc3ccccc3)O2)c(=O)[nH]c1=O (stereo partly drawn) [Compound 893, 2′,3′-dideoxy-2′,3′-didehydrothymidine 5′-(phenyl N-tButyloxyalaninyl) phosphoramidate]	> 1000	>5.0 × 10^3	200	850	–	1100	–	740	–	≥ 250	–	–	–	–	–	–	–	–
CSCC[C@H](NP(=O)(O)OC[C@@H]1C=C[C@H](n2cc(C)c(=O)[nH]c2=O)O1)C(=O)O [Compound 1156, 2′,3′-dideoxy-2′,3′-didehydrothymidine 5′-(methioninyl phosphate)]	–	–	–	1270	–	700	–	50000	–	> 250	16.2	>100	–	–	–	–	–	–
Nc1ncnc2c1ncn2C1CCC(CO)O1 (stereo not drawn) [Cpd 1069]	–	–	–	–	–	–	–	–	–	–	–	–	24.3	4000	8000	>100	17500	> 250
Cc1cn(C2CC(N=[N+]=[N-])C(COP(=O)(O)NC(C)C(=O)O)O2)c(=O)[nH]c1=O (stereo not drawn) [Cpd 1071]	–	–	–	–	–	–	–	–	–	–	–	–	> 250	115000	10000	>100	250000	> 250

From patent US7018989B2, “Chemical compounds” (University College Cardiff Consultants, LTD, priority 1995, dated 2006)
